The text below walks through data of US20110136819A1, “6-THIOXOPYRIDAZINE DERIVATIVES” (MERCK PATENT GESELLSCHAFT MIT BESCHRÄNKTER HAFTUNG, priority 2007, published 2011).

The structures appear in SMILES notation. Where a name gives a salt, the structure may show the parent alone.

The target of the experiment is T1, Met kinase (Homo sapiens, UniProt P08581).
T1 construct: 6His (N); purchased Upstate 14-526; host or cells: Sf21 insect cells (S. frugiperda), baculovirus
T1 sequence (P08581 25-1390): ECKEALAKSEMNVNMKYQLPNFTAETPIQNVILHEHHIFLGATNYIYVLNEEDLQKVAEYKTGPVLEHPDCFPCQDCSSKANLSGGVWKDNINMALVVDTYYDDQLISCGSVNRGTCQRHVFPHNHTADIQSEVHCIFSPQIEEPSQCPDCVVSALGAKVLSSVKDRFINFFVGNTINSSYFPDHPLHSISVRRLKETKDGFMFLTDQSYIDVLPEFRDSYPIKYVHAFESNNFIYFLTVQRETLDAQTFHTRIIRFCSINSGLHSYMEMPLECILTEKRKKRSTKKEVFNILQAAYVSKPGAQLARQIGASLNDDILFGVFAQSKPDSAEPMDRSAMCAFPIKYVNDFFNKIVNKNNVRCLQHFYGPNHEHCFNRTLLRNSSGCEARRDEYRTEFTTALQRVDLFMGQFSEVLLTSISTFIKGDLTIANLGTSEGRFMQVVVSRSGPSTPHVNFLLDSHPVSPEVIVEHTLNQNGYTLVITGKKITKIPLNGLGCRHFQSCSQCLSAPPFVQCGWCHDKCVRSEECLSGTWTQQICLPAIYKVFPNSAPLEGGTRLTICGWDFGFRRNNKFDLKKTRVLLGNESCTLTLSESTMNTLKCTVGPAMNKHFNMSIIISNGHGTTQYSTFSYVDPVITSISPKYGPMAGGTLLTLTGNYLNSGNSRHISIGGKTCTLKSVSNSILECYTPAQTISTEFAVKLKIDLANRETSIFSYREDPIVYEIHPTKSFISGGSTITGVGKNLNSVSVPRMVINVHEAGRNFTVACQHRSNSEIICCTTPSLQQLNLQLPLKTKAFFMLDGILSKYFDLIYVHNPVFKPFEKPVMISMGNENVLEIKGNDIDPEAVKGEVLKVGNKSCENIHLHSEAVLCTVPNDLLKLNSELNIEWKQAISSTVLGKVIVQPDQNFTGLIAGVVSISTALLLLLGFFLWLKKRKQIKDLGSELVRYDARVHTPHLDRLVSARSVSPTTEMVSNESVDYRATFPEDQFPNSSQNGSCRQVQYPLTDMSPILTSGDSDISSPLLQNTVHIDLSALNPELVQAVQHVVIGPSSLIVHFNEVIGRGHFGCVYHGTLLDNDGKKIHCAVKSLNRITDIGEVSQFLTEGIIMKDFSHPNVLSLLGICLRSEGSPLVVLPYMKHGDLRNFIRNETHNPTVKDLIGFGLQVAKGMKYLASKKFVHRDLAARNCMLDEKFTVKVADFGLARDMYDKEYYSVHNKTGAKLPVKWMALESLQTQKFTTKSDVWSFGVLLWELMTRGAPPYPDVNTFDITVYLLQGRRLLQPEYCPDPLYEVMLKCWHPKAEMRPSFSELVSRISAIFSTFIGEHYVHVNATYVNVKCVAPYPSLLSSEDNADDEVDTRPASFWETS
Briefly: Met kinase inhibition (enzyme assay), flashplate method. The class given is biochemical. Particulars: 33P-ATP, substrate pAGLT, 3 hrs at room temperature. An excerpt:
According to the manufacturer's data (Met, active, upstate, catalogue no. 14-526), Met kinase is expressed for the purposes of protein production in insect cells (Sf21; S. frugiperda) and subsequent affinity-chromatographic purification as “N-terminal 6His-tagged” recombinant human protein in a baculovirus expression vector.
The test plates used are 96-well Flashplate® microtitre plates from Perkin Elmer (Cat. No. SMP200). The components of the kinase reaction described below are pipetted into the assay plate. The Met kinase and the substrate poly Ala-Glu-Lys-Tyr, (pAGLT, 6:2:5:1), are incubated for 3 hrs at room temperature with radioactively labelled ^33P-ATP in the presence and absence of test substances in a total volume of 100 μl. The reaction is terminated using 150 μl of a 60 mM EDTA solution. After incubation for a further 30 min at room temperature, the supernatants are filtered off with suction, and the wells are washed three times with 200 μl of 0.9% NaCl solution each time. The measurement of the bound radioactivity is carried out by means of a scintillation measuring instrument (Topcount NXT, Perkin-Elmer).
The full value used is the inhibitor-free kinase reaction. This should be approximately in the range 6000-9000 cpm. The pharmacological zero value used is staurosporin in a final concentration of 0.1 mM. The inhibitory values (IC50) are determined using the RS1_MTS program.
30 μl of assay buffer 10 μl of substance to be tested in assay buffer with 10% of DMSO 10 μl of ATP (final concentration 1 μM cold, 0.35 μCi of ^33P-ATP) 50 μl of Met kinase/substrate mixture in assay buffer; • (10 ng of enzyme/well, 50 ng of pAGLT/well)
Assay Buffer: • 50 mM HEPES • 3 mM magnesium chloride • 3 μM sodium orthovanadate • 3 mM manganese(II) chloride • 1 mM dithiothreitol (DTT) • pH=7.5 (to be set using sodium hydroxide)
Stop Solution: • 60 mM Titriplex III (EDTA) • ^33P-ATP: Perkin-Elmer; • Met kinase: Upstate, Cat. No. 14-526, Stock 1 μg/10 μl; spec. activity 954 U/mg; • Poly-Ala-Glu-Lys-Tyr, 6:2:5:1: Sigma Cat. No. P1152
The term IC50 denotes the concentration needed to halve the response being measured. A higher IC50 goes with a need for much substance. In turn, `Cc1cnc(-c2cccc(Cn3nc(-c4cc(F)cc(F)c4)ccc3=S)c2)s1` [Compound A3, 6-(3,5-difluorophenyl)-2-[3-(5-methylthiazol-2-yl)-benzyl]-2H-pyridazine-3-thione] had an IC50 of 10 to 1000 nM.

For the compound `Cc1cnc(-c2cccc(Cn3nc(-c4cccc(Cl)c4)ccc3=S)c2)s1` [Compound A4, 6-(3-chlorophenyl)-2-[3-(5-methylthiazol-2-yl)benzyl]-2H-pyridazine-3-thione], the IC50 lay in the range of 10 to 1000 nM.

For `CN1CCN(CCCOC(=O)Nc2cccc(Cn3nc(-c4cc(F)c(F)c(F)c4)ccc3=S)c2)CC1` [Compound A2, 3-(4-methylpiperazin-1-yl)propyl{3-[6-thioxo-3-(3,4,5-trifluorophenyl)-6H-pyridazin-1-ylmethyl]phenyl}carbamate formate], the concentration for half-maximal inhibition (IC50) fell in the range of 10 to 1000 nM.

For `CN1CCN(CCCOC(=O)Nc2cccc(Cn3nc(-c4cc(F)cc(F)c4)ccc3=S)c2)CC1` [Compound A1, 3-(4-methylpiperazin-1-yl)propyl{3-[6-thioxo-3-(3,5-difluorophenyl)-6H-pyridazin-1-ylmethyl]phenyl}carbamate], the half-inhibitory concentration (IC50) lay within 10 to 1000 nM.
